Like-named read-outs stand apart in the source and are kept apart here.
How the values were obtained:
[1] = biological target: T1, human glucocorticoid receptor (Homo sapiens, UniProt P04150); test: Glucocorticoid Receptor Binding Assay (I), fluorescence polarization competitor kit; details: purified human recombinant full-length GR, Fluormone GS Red
T1 construct: purified human recombinant full-length glucocorticoid receptor (2 nM); purchased Invitrogen Part #2893
T1 sequence (P04150 1-777): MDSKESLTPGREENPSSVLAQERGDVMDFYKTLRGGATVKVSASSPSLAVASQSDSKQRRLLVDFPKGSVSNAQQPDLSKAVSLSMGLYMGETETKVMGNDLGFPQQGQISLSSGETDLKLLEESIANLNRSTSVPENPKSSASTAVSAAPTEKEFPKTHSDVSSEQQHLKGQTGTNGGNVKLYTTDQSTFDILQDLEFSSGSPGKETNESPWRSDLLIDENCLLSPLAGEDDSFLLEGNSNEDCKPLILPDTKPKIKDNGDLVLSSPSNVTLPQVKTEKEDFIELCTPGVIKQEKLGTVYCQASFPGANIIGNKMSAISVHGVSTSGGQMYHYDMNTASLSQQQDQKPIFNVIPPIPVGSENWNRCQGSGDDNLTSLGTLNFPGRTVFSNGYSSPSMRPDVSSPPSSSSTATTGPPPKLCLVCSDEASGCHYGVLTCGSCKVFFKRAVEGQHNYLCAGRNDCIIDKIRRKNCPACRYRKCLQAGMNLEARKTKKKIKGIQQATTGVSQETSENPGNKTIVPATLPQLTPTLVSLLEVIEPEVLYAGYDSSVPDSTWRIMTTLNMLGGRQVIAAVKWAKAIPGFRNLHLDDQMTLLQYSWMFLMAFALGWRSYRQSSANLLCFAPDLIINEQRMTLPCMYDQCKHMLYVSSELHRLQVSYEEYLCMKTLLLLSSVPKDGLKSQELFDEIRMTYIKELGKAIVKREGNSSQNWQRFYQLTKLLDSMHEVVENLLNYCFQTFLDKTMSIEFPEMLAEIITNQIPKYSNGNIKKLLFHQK
Procedure: Glucocorticoid Receptor Binding Assay (I)^a
In order to assess the affinity of test compounds for the human glucocorticoid receptor, a commercially available kit was used (Glucocorticoid Receptor Competitor Assay Kit, Invitrogen Part #2893). Briefly, purified human recombinant full-length glucocorticoid receptor (2 nM) was mixed with fluorescently labeled glucocorticoid (1 nM Fluormone GS Red) in the presence or absence of test compound. After two hour incubation at room temperature in the dark, the fluorescence polarization (FP) of the samples was measured. The FP of a mixture of receptor, fluorescent probe (i.e. Fluormone GS Red) and 5 μM dexamethasone represented background fluorescence or 100% inhibition, whereas, the FP of the mixture without dexamethasone (but in the presence of vehicle) was taken to be 100% binding. The percentage inhibition of test compounds were then compared to the sample with 5 μM dexamethasone and expressed as % relative binding activity with dexamethasone being 100% and no inhibition is 0%. Test compounds were analyzed in the concentration range from 8.5E-05 μM to 5 μM.

[2] = test system: AP-1 induced transcriptional activity; test: Cellular Transrepressional Assay (AP-1 luciferase reporter in A549 cell, PMA activated); assay type: cell-based; details: pAP-1-Luc; for Emax / AP-1 Max % inh (Cellular Transrepression Assay): maximum inhibition, PMA; for Emax: read-out: AP-1 Max % inh (Cellular Transrepression Assay); for EC50: 10 ng/ml PMA, 7 hours, read-out: AP-1 EC50, nM (Cellular Transrepression Assay)
Method in brief: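 A549 cells stably carrying a 7×AP-1-site luciferase reporter were stimulated with 10 ng/ml PMA for 7 h alongside test molecules (0.1 nM to 40 μM). Luminescence read 10 min after luciferase reagent; repression expressed as % decrease of PMA-only signal, EC50 from curve fitting at 50% reduction of AP-1 activity.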

| SMILES | Ki [1] | EC50 ([2]; Homo sapiens, A549, 7 h) | Emax ([2]; Homo sapiens, A549, 7 h) | further results |
| --- | --- | --- | --- | --- |
| CCCN(CCC)C(=O)c1ccc(-c2ccc([C@H](c3cccc(F)c3)C(C)(C)C(=O)Nc3nncs3)s2)cc1 [Example 72, 4-(5-((1R)-1-(3-fluorophenyl)-2,2-dimethyl-3-oxo-3-(1,3,4-thiadiazol-2-ylamino)propyl)-2-thienyl)-N,N-dipropylbenzamide] | 29.8 nM |  |  |  |
| C[C@@H](C(=O)Nc1nncs1)[C@@H](c1cccc(F)c1)c1ccc(-c2ccc(C(=O)N(C)C)cc2)s1 [Example 131, 4-(5-((1S,2R)-1-(3-fluorophenyl)-2-methyl-3-oxo-3-(1,3,4-thiadiazol-2-ylamino)propyl)-2-thienyl)-N,N-dimethylbenzamide] | 236 nM |  |  |  |
| CC(C(=O)Nc1nncs1)C(c1ccccc1)c1ccc(Br)s1 (single isomer, unassigned) [Example 135, 3-(5-bromo-2-thienyl)-2-methyl-3-phenyl-N-1,3,4-thiadiazol-2-ylpropanamide] | 1.25 nM |  |  |  |
| CC(C(=O)Nc1nncs1)C(c1ccccc1)c1ccc(Br)s1 (single isomer, unassigned) [Example 134, 3-(5-bromo-2-thienyl)-2-methyl-3-phenyl-N-1,3,4-thiadiazol-2-ylpropanamide] | 1.06 nM |  |  |  |
| C[C@H](C(=O)Nc1nncs1)[C@H](c1cccc(F)c1)c1ccc(-c2ccc(C(=O)N3CCOCC3)c(Cl)c2)s1 [Example 127, (2S,3R)-3-(5-(3-chloro-4-(4-morpholinylcarbonyl)phenyl)-2-thienyl)-3-(3-fluorophenyl)-2-methyl-N-1,3,4-thiadiazol-2-ylpropanamide] | 148 nM |  |  |  |
| COc1ccc(-c2ccc(C(c3ccccc3)C(C)(C)C(=O)Nc3nccs3)cn2)cc1 (stereo not drawn) [Example 26, 3-(6-(4-methoxyphenyl)-3-pyridinyl)-2,2-dimethyl-3-phenyl-N-1,3-thiazol-2-ylpropanamide] |  | 316 nM | 41.4% |  |
| CC(C)(C(=O)Nc1nncs1)C(c1cc(F)cc(F)c1)c1ccc(-c2ccc(C(=O)N3CCOCC3)cc2)s1 (stereo not drawn) [Example 89, 3-(3,5-difluorophenyl)-2,2-dimethyl-3-(5-(4-(4-morpholinylcarbonyl)phenyl)-2-thienyl)-N-1,3,4-thiadiazol-2-ylpropanamide] |  | 2.41 nM | 36.7% |  |
| CC(C(=O)Nc1nncs1)C(c1cccc(F)c1)c1ccc(-c2ccc(C(=O)N(C)C)cc2)s1 (single isomer, unassigned) [Example 102, 4-(5-(1-(3-fluorophenyl)-2-methyl-3-oxo-3-(1,3,4-thiadiazol-2-ylamino)propyl)-2-thienyl)-N,N-dimethylbenzamide] |  |  | 52.6% | EC50 [2]: 10.6 nM |
| C[C@@H](C(=O)Nc1nncs1)[C@@H](c1cccc(F)c1)c1ccc(Br)s1 [Example 96, (2R,3S)-3-(5-bromo-2-thienyl)-3-(3-fluorophenyl)-2-methyl-N-1,3,4-thiadiazol-2-ylpropanamide] |  | 71.1 nM | 27.4% |  |
| CC(C(=O)Nc1nncs1)C(c1ccccc1)c1ccc(-c2ccc(C(=O)N3CCOCC3)cc2)s1 (single isomer, unassigned) [Example 144, 2-methyl-3-(5-(4-(4-morpholinylcarbonyl)phenyl)-2-thienyl)-3-phenyl-N-1,3,4-thiadiazol-2-ylpropanamide] |  |  |  | AP-1 Max % inh (Cellular Transrepression Assay) [2]: 49.49 % inh; EC50 [2]: 5.98 nM |
| CCCc1ccc(-c2ccc(C(c3ccccc3)C(C)(C)C(=O)Nc3nncs3)cn2)cc1 (stereo not drawn) [Example 30, 2,2-dimethyl-3-phenyl-3-(6-(4-propylphenyl)-3-pyridinyl)-N-1,3,4-thiadiazol-2-ylpropanamide] |  | 49 nM | 39.4% |  |
| CCN(C)C(=O)c1ccc(-c2ccc([C@@H](c3cccc(F)c3)[C@@H](C)C(=O)Nc3nncs3)s2)cc1Cl [Example 119, 2-chloro-N-ethyl-4-(5-((1R,2R)-1-(3-fluorophenyl)-2-methyl-3-oxo-3-(1,3,4-thiadiazol-2-ylamino)propyl)-2-thienyl)-N-methylbenzamide] |  | 22.7 nM | 47.6% |  |
| CC(C(=O)Nc1nncs1)C(c1cccc(F)c1)c1ccc(-c2ccc(C(=O)N(C)C)c(Cl)c2)s1 (single isomer, unassigned) [Example 104, 2-chloro-4-(5-(1-(3-fluorophenyl)-2-methyl-3-oxo-3-(1,3,4-thiadiazol-2-ylamino)propyl)-2-thienyl)-N,N-dimethylbenzamide] |  |  | 49.5% | EC50 [2]: 38.7 nM |
| CN(C)C(=O)c1ccc(-c2ccc(C(c3ccccc3)C(C)(C)C(=O)Nc3nncs3)s2)cc1Cl (stereo not drawn) [Example 86, 2-chloro-4-(5-(2,2-dimethyl-3-oxo-1-phenyl-3-(1,3,4-thiadiazol-2-ylamino)propyl)-2-thienyl)-N,N-dimethylbenzamide] |  |  |  | AP-1 Max % inh (Cellular Transrepression Assay) [2]: 36.20 % inh; EC50 [2]: 53.9 nM |
| CC(C)Oc1ccc(-c2ccc(C(c3cccc(F)c3)C(C)(C)C(=O)Nc3nncs3)s2)cc1 (stereo not drawn) [Example 38, 3-(3-fluorophenyl)-3-(5-(4-isopropoxyphenyl)-2-thienyl)-2,2-dimethyl-N-1,3,4-thiadiazol-2-ylpropanamide] |  | 8.43 nM | 23.1% |  |

Continued, in another order:

| Ki [1] | EC50 ([2]; Homo sapiens, A549, 7 h) | SMILES | Emax ([2]; Homo sapiens, A549, 7 h) | further results |
| --- | --- | --- | --- | --- |
| 152 nM |  | COC(=O)c1ccc(-c2ccc(C(c3ccccc3)C(C)(C)C(=O)Nc3nncs3)s2)cc1F (stereo not drawn) [Example 53, methyl 4-(5-(2,2-dimethyl-3-oxo-1-phenyl-3-(1,3,4-thiadiazol-2-ylamino)propyl)-2-thienyl)-2-fluorobenzoate] |  |  |
| 6.13 nM |  | CCNC(=O)c1ccc(-c2ccc([C@H](c3cccc(F)c3)C(C)(C)C(=O)Nc3nncs3)s2)cc1 [Example 73, N-ethyl-4-(5-((1R)-1-(3-fluorophenyl)-2,2-dimethyl-3-oxo-3-(1,3,4-thiadiazol-2-ylamino)propyl)-2-thienyl)benzamide] |  |  |
| 0.89 nM |  | CN(C)C(=O)c1ccc(-c2ccc(C(c3ccccc3)C(C)(C)C(=O)Nc3nncs3)s2)cc1 (stereo not drawn) [Example 44, 4-(5-(2,2-dimethyl-3-oxo-1-phenyl-3-(1,3,4-thiadiazol-2-ylamino)propyl)-2-thienyl)-N,N-dimethylbenzamide] |  |  |
| 360 nM |  | CC(C(=O)Nc1nncs1)C(c1ccccc1)c1ccc(-c2ccc(C(=O)N(C)C)cc2)s1 (single isomer, unassigned) [Example 138, N,N-dimethyl-4-(5-(2-methyl-3-oxo-1-phenyl-3-(1,3,4-thiadiazol-2-ylamino)propyl)-2-thienyl)benzamide] |  |  |
| 3.58 nM |  | CCN(CC)C(=O)c1ccc(-c2ccc(C(c3ccccc3)C(C)(C)C(=O)Nc3nncs3)s2)cc1 (stereo not drawn) [Example 49, 4-(5-(2,2-dimethyl-3-oxo-1-phenyl-3-(1,3,4-thiadiazol-2-ylamino)propyl)-2-thienyl)-N,N-diethylbenzamide] |  |  |
|  | 5.88 nM | CC(C)(C(=O)Nc1nncs1)C(c1ccccc1)c1ccc(-c2ccc(C(=O)N3CCOCC3)cc2)s1 (stereo not drawn) [Example 45, 2,2-dimethyl-3-(5-(4-(4-morpholinylcarbonyl)phenyl)-2-thienyl)-3-phenyl-N-1,3,4-thiadiazol-2-ylpropanamide] | 51% |  |
|  | 7.31 nM | CCN(C)C(=O)c1ccc(-c2ccc([C@H](c3cccc(F)c3)C(C)(C)C(=O)Nc3nncs3)s2)cc1 [Example 68, N-ethyl-4-(5-((1R)-1-(3-fluorophenyl)-2,2-dimethyl-3-oxo-3-(1,3,4-thiadiazol-2-ylamino)propyl)-2-thienyl)-N-methylbenzamide] | 49.4% |  |
|  | 20.6 nM | CN(C)C(=O)c1ccc(-c2ccc(C(c3cc(F)cc(F)c3)C(C)(C)C(=O)Nc3nncs3)s2)cc1 (stereo not drawn) [Example 90, 4-(5-(1-(3,5-difluorophenyl)-2,2-dimethyl-3-oxo-3-(1,3,4-thiadiazol-2-ylamino)propyl)-2-thienyl)-N,N-dimethylbenzamide] | 32.7% |  |

From patent publication US8222247B2, “Modulators of glucocorticoid receptor, AP-1, and/or NF-kappabeta activity and use thereof” (Bristol-Myers Squibb Company, priority 2006, dated 2012)
